Reference: patent US20240254103A9, “NOVEL PYRIMIDINE DERIVATIVE, AND COMPOSITION FOR PREVENTING OR TREATING NEURODEGENERATIVE DISEASES AND CANCER, COMPRISING SAME” (WHAN IN PHARMACEUTICAL CO., LTD., priority 2020, published 2024)

Target: T1, wild-type LRRK2 (Homo sapiens, UniProt Q5S007)
T1 construct: DNA tag for qPCR detection (not a peptide; the protein part that carries it is not described); made in house; host or cells: HEK 293 cells (the same paragraph also describes T7 phage grown in E. coli BL21)
Assay: Inhibitory activity against LRRK2: competition binding to ligand-affinity beads, DNA-tagged kinase quantitated by qPCR
Conditions: % of ctrl; for remaining binding at 0.01 µM: 10 nM compound, read-out: LRRK2(WT) Remaining kinase activity(%) at 10 nM; for remaining binding at 0.05 µM: 50 nM compound, read-out: LRRK2(WT) Remaining kinase activity(%) at 50 nM
Procedure: Representative compounds synthesized in Example 1 were assayed for inhibitory activity against wild-type LRRK2 and mutant LRRK2 (G2019S), and the results are summarized in Tables 2 and 3. In brief, a T7 phase strain carrying the wild-type kinase consisting of amino acid residues from H970 to E2527 of human-derived LRRK2 (Accession no. NP_940980.3) or a T7 phase strain carrying the G2019S mutation kinase was infected into E. coli strain BL21 which was then grown until log phase. After infection with T7 phases (multiplicity of infection=0.4), the cells were cultured at 32° C. for 90-150 minutes while shaking. Then, E. coli lysates were centrifuged (6,000×g) and the supernatant was filtered through a 0.2-μm filter. The kinases were produced in HEK 293 cells. In this regard, DNA was tagged to obtain DNA-tagged kinases for qPCR detection. For use in analyzing the kinases, affinity resins were prepared by treating streptavidin-coated magnetic beads with biotinylated small molecule ligands at room temperature for 30 minutes. Then, the liganded beads were blocked with an excess of biotin and washed with a blocking buffer (SeaBlock (Pierce), 1% BSA, 0.05% Tween 20, 1 mM DTT) to remove unbound ligands and thus to reduce the binding of non-specific phages. […] After one hour of incubation, the affinity beads were washed with a wash buffer (1×PBS, 0.05% Tween 20), resuspended in an elution buffer (1×PBS, 0.05% Tween 20, 0.5 μM non-biotinylated affinity ligand), and incubated at room temperature for 30 minutes while shaking. Afterwards, concentrations of wild-type LRRK2 and mutant LRRK2 (G2019S) in the eluted samples were quantitated by qPCR. Activity values are expressed as percentages relative to the control (% of ctrl). The compounds used in the activity assay were prepared into 40× stocks in 100% DMSO. The stocks were directly diluted during analysis procedures.
Table 2 includes inhibitory activities of the representative compounds of the present disclosure at 100 nM against wild-type LRRK2 and mutant LRRK2 (G2019S) while Table 3 includes inhibitory activities of the representative compounds at 10 nM and 50 nM against wild-type LRRK2. (+++ less than 10%; ++ less than 30%; + less than 50%; −50% or higher)

T1 sequence (Q5S007 970-2527): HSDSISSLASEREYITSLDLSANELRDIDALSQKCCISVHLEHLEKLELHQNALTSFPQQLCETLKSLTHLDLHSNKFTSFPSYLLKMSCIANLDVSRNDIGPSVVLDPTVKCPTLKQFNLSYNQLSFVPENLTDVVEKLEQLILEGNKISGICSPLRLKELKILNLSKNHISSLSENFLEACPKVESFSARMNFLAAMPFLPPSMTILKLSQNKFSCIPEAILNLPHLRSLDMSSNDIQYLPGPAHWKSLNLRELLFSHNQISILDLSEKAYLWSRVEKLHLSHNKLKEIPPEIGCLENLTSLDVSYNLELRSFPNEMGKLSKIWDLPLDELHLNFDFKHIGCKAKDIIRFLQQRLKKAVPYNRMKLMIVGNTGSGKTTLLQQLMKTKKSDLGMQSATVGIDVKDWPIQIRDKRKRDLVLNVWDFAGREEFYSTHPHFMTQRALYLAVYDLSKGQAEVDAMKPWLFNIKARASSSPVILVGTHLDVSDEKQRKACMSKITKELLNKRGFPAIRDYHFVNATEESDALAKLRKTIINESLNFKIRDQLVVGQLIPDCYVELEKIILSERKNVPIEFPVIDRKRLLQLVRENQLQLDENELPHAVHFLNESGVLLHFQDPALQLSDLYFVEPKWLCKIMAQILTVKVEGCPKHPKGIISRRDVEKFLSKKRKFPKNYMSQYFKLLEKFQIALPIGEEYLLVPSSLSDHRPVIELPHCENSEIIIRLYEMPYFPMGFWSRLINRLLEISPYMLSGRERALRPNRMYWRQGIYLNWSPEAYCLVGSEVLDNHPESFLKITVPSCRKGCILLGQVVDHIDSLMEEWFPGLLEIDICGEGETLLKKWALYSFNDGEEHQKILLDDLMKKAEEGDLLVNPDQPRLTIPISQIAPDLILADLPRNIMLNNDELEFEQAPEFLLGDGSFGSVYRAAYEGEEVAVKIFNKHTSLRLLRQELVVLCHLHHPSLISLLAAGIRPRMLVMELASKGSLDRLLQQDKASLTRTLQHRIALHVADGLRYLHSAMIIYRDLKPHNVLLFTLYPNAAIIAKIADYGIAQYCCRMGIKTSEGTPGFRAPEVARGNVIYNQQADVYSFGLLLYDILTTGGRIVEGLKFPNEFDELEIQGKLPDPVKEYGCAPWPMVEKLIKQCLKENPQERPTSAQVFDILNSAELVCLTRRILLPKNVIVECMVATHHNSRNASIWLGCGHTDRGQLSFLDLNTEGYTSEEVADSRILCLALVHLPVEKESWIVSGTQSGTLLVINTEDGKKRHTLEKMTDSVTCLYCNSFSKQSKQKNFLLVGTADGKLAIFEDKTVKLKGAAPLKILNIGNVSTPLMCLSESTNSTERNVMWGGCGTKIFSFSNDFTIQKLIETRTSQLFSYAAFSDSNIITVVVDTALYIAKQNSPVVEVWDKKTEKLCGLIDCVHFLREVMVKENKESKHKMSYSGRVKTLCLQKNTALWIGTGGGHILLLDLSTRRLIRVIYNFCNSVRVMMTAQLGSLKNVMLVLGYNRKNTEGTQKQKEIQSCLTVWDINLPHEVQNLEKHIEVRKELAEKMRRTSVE

SMILES | remaining binding at 0.01 µM [%] | remaining binding at 0.05 µM [%]
COc1ccccc1CNC(=O)c1ccc(Nc2ncc(Cl)c(-c3cnn(C(C)C)c3)n2)c(OC)c1 [Compound 154, 4-((5-chloro-4-(1-isopropyl-1H-pyrazol-4-yl)pyrimidin-2-yl)amino)-3-methoxy-N-(2-methoxybenzyl)benzamide] | ≥ 50 | < 30
COc1cc(C(=O)NC2CC(C)(C)NC(C)(C)C2)ccc1Nc1ncc(Cl)c(-c2cnn(C(C)C)c2)n1 [Compound 166, 4-((5-chloro-4-(1-isopropyl-1H-pyrazol-4-yl)pyrimidin-2-yl)amino)-3-methoxy-N-(2,2,6,6-tetramethylpiperidin-4-yl)benzamide] | ≥ 50 | < 30
COc1cc(C(=O)NN2C(C)CCCC2C)ccc1Nc1ncc(Cl)c(-c2cnn(C(C)C)c2)n1 (stereo not shown) [Compound 167, 4-((5-chloro-4-(1-isopropyl-1H-pyrazol-4-yl)pyrimidin-2-yl)amino)-N-(2,6-dimethylpiperidin-1-yl)-3-methoxybenzamide] | ≥ 50 | < 30
COc1cc(C(=O)NCc2ccc(Cl)nc2)ccc1Nc1ncc(Cl)c(-c2cnn(C(C)C)c2)n1 [Compound 168, 4-((5-chloro-4-(1-isopropyl-1H-pyrazol-4-yl)pyrimidin-2-yl)amino)-N-((6-chloropyridin-3-yl)methyl)-3-methoxybenzamide] | ≥ 50 | < 50
CCOC(=O)CCNC(=O)c1ccc(Nc2ncc(Cl)c(-c3cnn(C(C)C)c3)n2)c(OC)c1 [Compound 176, ethyl 3-(4-((5-chloro-4-(1-isopropyl-1H-pyrazol-4-yl)pyrimidin-2-yl)amino)-3-methoxybenzamido)propanoate] | ≥ 50 | < 50
COc1cc(C(=O)NC(C)c2ccccc2)ccc1Nc1ncc(Cl)c(-c2cnn(C(C)C)c2)n1 (stereo not shown) [Compound 179, 4-((5-chloro-4-(1-isopropyl-1H-pyrazol-4-yl)pyrimidin-2-yl)amino)-3-methoxy-N-(1-phenylethyl)benzamide] | ≥ 50 | < 50
CCC(NC(=O)c1ccc(Nc2ncc(Cl)c(-c3cnn(C(C)C)c3)n2)c(OC)c1)c1ccccc1 (stereo not shown) [Compound 182, 4-((5-chloro-4-(1-isopropyl-1H-pyrazol-4-yl)pyrimidin-2-yl)amino)-3-methoxy-N-(1-phenylpropyl)benzamide] | ≥ 50 | < 50
COc1cc(C(=O)NCc2ccc(N)cc2)ccc1Nc1ncc(Cl)c(-c2cnn(C(C)C)c2)n1 [Compound 183, N-(4-aminobenzyl)-4-((5-chloro-4-(1-isopropyl-1H-pyrazol-4-yl)pyrimidin-2-yl)amino)-3-methoxybenzamide] | ≥ 50 | < 30
COc1cc(C(=O)NCc2ccc(S(N)(=O)=O)cc2)ccc1Nc1ncc(Cl)c(-c2cnn(C(C)C)c2)n1 [Compound 189, 4-((5-chloro-4-(1-isopropyl-1H-pyrazol-4-yl)pyrimidin-2-yl)amino)-3-methoxy-N-(4-sulfamoylbenzyl)benzamide] | ≥ 50 | < 50
COc1cc(C(=O)Nc2cccc(NS(C)(=O)=O)c2)ccc1Nc1ncc(Cl)c(-c2cnn(C(C)C)c2)n1 [Compound 190, 4-((5-chloro-4-(1-isopropyl-1H-pyrazol-4-yl)pyrimidin-2-yl)amino)-3-methoxy-N-(3-(methylsulfonamido)phenyl)benzamide] | ≥ 50 | < 50
COc1cc(C(=O)Nc2cccc(S(N)(=O)=O)c2)ccc1Nc1ncc(Cl)c(-c2cnn(C(C)C)c2)n1 [Compound 191, 4-((5-chloro-4-(1-isopropyl-1H-pyrazol-4-yl)pyrimidin-2-yl)amino)-3-methoxy-N-(3-sulfamoylphenyl)benzamide] | ≥ 50 | < 30
COc1cc(C(=O)NCCS(C)(=O)=O)ccc1Nc1ncc(Cl)c(-c2cnn(C(C)C)c2)n1 [Compound 192, 4-((5-chloro-4-(1-isopropyl-1H-pyrazol-4-yl)pyrimidin-2-yl)amino)-3-methoxy-N-(2-(methylsulfonyl)ethyl)benzamide] | ≥ 50 | < 30
COc1cc(C(=O)NCCCn2ccnc2)ccc1Nc1ncc(Cl)c(-c2cnn(C(C)C)c2)n1 [Compound 197, N-(3-(1H-imidazol-1-yl)propyl)-4-((5-chloro-4-(1-isopropyl-1H-pyrazol-4-yl)pyrimidin-2-yl)amino)-3-methoxybenzamide] | ≥ 50 | < 50
COc1cc(C(=O)NCC(OC)OC)ccc1Nc1ncc(Cl)c(-c2cnn(C(C)C)c2)n1 [Compound 198, 4-((5-chloro-4-(1-isopropyl-1H-pyrazol-4-yl)pyrimidin-2-yl)amino)-N-(2,2-dimethoxyethyl)-3-methoxybenzamide] | ≥ 50 | < 50
COC(=O)[C@@H]1CCCN1C(=O)c1ccc(Nc2ncc(Cl)c(-c3cnn(C(C)C)c3)n2)c(OC)c1 [Compound 200, methyl (4-((5-chloro-4-(1-isopropyl-1H-pyrazol-4-yl)pyrimidin-2-yl)amino)-3-methoxybenzoyl)-L-prolinate] | ≥ 50 | < 50
CCN(C)C(=O)c1ccc(Nc2ncc(Cl)c(-c3cnn(C(C)C)c3)n2)c(OC)c1 [Compound 202, 4-((5-chloro-4-(1-isopropyl-1H-pyrazol-4-yl)pyrimidin-2-yl)amino)-N-ethyl-3-methoxy-N-methylbenzamide] | ≥ 50 | < 50
COc1ccc(CNC(=O)c2ccc(Nc3ncc(Cl)c(-c4cnn(C(C)C)c4)n3)c(OC)c2)cc1 [Compound 203, 4-((5-chloro-4-(1-isopropyl-1H-pyrazol-4-yl)pyrimidin-2-yl)amino)-3-methoxy-N-(4-methoxybenzyl)benzamide] | ≥ 50 | < 50
COc1cc(C(=O)Nc2cc(C)c(OC)c(C)c2)ccc1Nc1ncc(Cl)c(-c2cnn(C(C)C)c2)n1 [Compound 204, 4-((5-chloro-4-(1-isopropyl-1H-pyrazol-4-yl)pyrimidin-2-yl)amino)-3-methoxy-N-(4-methoxy-3,5-dimethylphenyl)benzamide] | ≥ 50 | < 50
COc1cc(C(=O)NCc2cccc(N)c2)ccc1Nc1ncc(Cl)c(-c2cnn(C(C)C)c2)n1 [Compound 205, N-(3-aminobenzyl)-4-((5-chloro-4-(1-isopropyl-1H-pyrazol-4-yl)pyrimidin-2-yl)amino)-3-methoxybenzamide] | ≥ 50 | < 50
CCN(C)C1CCN(C(=O)c2ccc(Nc3ncc(Cl)c(-c4cnn(C(C)C)c4)n3)c(OC)c2)CC1 [Compound 210, (4-((5-chloro-4-(1-isopropyl-1H-pyrazol-4-yl)pyrimidin-2-yl)amino)-3-methoxyphenyl)(4-(ethyl(methyl)amino)piperidin-1-yl)methanone] | < 50 | < 10
COc1cc(C(=O)Nc2ccc3c(c2)CCN3C(C)=O)ccc1Nc1ncc(Cl)c(-c2cnn(C(C)C)c2)n1 [Compound 212, N-(1-acetylindolin-5-yl)-4-((5-chloro-4-(1-isopropyl-1H-pyrazol-4-yl)pyrimidin-2-yl)amino)-3-methoxybenzamide] | ≥ 50 | < 50
COc1cc(C(=O)N2CCC(N3CCCC3)CC2)ccc1Nc1ncc(Cl)c(-c2cnn(C(C)C)c2)n1 [Compound 216, (4-((5-chloro-4-(1-isopropyl-1H-pyrazol-4-yl)pyrimidin-2-yl)amino)-3-methoxyphenyl)(4-(pyrrolidin-1-yl)piperidin-1-yl)methanone] | < 50 | < 10
COc1cc(C(=O)N2CCC(N3CCCCC3)CC2)ccc1Nc1ncc(Cl)c(-c2cnn(C(C)C)c2)n1 [Compound 217, [1,4′-bipiperidin]-1′-yl(4-((5-chloro-4-(1-isopropyl-1H-pyrazol-4-yl)pyrimidin-2-yl)amino)-3-methoxyphenyl)methanone] | < 30 | < 10
